Entries after “also recorded” stand apart in the source; their conditions may differ. Like-named read-outs stand apart in the source and are kept apart here.
Columns and labels:
[1] = Free fraction in plasma (equilibrium dialysis); format: in vitro ADME, male Sprague-Dawley rat; conditions: rat plasma, 1 μM, 5 h at 37° C.
Summary of the method: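 Equilibrium dialysis (12-14 kDa membrane) of male Sprague-Dawley rat or female Gottingen minipig plasma, or rat brain homogenate diluted 1:4, against 100 mM sodium phosphate pH 7.4, compound at 1 μM nominal (≤0.5% DMSO), 5 h at 37 °C. LC/MS-MS quantification; percent free calculated, with dilution factor 4 for brain.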

GSH adduct screening = format: in vitro ADME, human; conditions: 1 μM, 3 h at 37° C., HLM 0.5 mg/mL, NADPH, with and without GSH
LRRK2 G2019S = molecular target: T1, LRRK2 G2019S (Homo sapiens, UniProt Q5S007, G2019S); test: LRRK2 G2019S kinase activity assay (LanthaScreen TR-FRET); format: biochemical; conditions: 250 pM LRRK2 G2019S, 1.3 mM ATP, 3 h at 30° C.; n≥2 tests
T1 construct: purchased Invitrogen (Life Technologies Corporation)
Summary of the method: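 TR-FRET measured phosphorylation of fluorescein-ERM LRRKtide by human LRRK2 residues 970–2527, wild-type or G2019S, detected with a terbium anti-phospho-LRRKtide antibody. The 520/495 nm ratio was normalized to uninhibited and inhibitor controls. IC50 came from a Hill fit, log-averaged over independent experiments.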

[2] = tested on: panel of 403 wild type kinases; test: Broad kinase selectivity, Eurofins DiscoverX scanMAX panel; format: binding, primarily of human origin; conditions: screening concentration 100 nM; for Number of Hits: 403 non-mutant kinases
Description: Protein kinase profiling of the inhibitors (Fabian, M. A. et al. inhibitors. Nat. […] Selectivity Score or S-score is a quantitative measure of compound selectivity. It was calculated by dividing the number of kinases that compounds bind to by the total number of distinct kinases tested, excluding mutant variants. S=Number of hits/Number of assays. This value can be calculated using % Ctrl as a potency threshold (below) and provides a quantitative method of describing compound selectivity to facilitate comparison of different compounds.

[3] = Minipig B/P (brain disposition); format: in vivo, female Gottingen minipigs; conditions: female, Gottingen, mean ± stdev
Description: Brain disposition of Example 13 was evaluated in female Gottingen minipigs (n=3, body weight range 13-14 kg). […] At the end of infusion (2 h) the minipigs were sacrificed and terminal blood as well as brain samples were taken (n=3). Isolated plasma and brain homogenates were extracted by standard protein precipitation in acetonitrile, containing internal standard, followed by LC-MS/MS analysis using an optimized analytical method. Concentrations of test compound in plasma and brain were quantified against matrix matched calibration standards. The total plasma and brain concentration time data are presented in Table 6 alongside the calculated brain Kp (total brain concentration:total plasma concentration ratio).

T1 sequence (Q5S007 970-2527 G2019S): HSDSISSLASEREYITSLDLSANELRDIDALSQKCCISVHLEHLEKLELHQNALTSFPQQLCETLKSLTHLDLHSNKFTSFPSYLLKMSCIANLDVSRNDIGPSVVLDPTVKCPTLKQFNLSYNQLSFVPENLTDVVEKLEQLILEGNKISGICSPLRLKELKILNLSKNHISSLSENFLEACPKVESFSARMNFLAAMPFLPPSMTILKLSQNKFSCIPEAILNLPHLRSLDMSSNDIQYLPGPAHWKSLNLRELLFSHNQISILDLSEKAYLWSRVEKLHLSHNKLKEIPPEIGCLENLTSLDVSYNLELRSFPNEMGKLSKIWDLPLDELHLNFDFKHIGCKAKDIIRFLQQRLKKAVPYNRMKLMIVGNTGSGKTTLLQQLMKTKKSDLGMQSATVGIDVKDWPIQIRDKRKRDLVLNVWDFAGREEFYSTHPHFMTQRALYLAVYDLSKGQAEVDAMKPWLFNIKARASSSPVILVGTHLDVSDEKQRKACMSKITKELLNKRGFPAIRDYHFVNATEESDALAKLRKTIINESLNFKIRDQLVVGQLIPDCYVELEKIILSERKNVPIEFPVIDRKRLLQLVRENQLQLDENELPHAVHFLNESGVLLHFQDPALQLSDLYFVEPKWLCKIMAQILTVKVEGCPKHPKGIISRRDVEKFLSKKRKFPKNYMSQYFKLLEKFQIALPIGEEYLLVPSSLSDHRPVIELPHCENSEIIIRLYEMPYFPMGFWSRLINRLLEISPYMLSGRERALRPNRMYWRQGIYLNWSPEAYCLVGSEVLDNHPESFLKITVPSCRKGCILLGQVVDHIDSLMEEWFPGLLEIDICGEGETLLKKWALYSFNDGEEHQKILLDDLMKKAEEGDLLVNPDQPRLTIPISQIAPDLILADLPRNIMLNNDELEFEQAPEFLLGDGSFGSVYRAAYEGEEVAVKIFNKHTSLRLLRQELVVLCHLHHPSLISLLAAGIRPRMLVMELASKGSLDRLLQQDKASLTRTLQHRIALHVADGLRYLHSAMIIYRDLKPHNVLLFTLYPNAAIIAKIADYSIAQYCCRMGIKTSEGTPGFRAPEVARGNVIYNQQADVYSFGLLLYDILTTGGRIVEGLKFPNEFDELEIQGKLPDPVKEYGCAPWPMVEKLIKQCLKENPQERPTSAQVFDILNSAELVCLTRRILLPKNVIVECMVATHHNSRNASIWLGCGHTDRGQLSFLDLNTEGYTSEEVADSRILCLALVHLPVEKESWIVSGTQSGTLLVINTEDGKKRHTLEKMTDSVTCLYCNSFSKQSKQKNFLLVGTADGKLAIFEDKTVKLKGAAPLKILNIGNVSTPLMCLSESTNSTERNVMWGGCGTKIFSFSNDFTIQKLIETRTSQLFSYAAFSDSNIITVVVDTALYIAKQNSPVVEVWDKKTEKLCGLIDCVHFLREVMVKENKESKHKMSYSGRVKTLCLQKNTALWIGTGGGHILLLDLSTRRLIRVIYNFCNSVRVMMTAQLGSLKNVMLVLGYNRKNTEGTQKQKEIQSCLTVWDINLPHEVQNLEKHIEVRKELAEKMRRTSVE

fuplasma (% free) [1]: 32.0 % free
IC50 (LRRK2 G2019S): 2.5 nM
Selectivity Score ([2]; S(1): % Ctrl < 1): 0.002
Number of Hits ([2]; S(1): % Ctrl < 1, hit is LRRK2 WT): 1
Selectivity Score ([2]; S(10): % Ctrl < 10): 0.03
Number of Hits ([2]; S(10): % Ctrl < 10): 12
Selectivity Score ([2]; S(35): % Ctrl < 35): 0.094
Number of Hits ([2]; S(35): % Ctrl < 35): 38
concentration at 2 h ([3]; brain, IV bolus 0.28 mg/kg + IV infusion 0.60 mg/kg, time point 2.00 h, n = 3, read-out: CTotal, brain): 151 ± 11 ng/mL
Kp at 2 h ([3]; intravenous, total brain:total plasma concentration ratio, time point 2.00 h, n = 3): 1.63 ± 0.08
concentration at 0.083 h ([3]; plasma, IV bolus 0.28 mg/kg + IV infusion 0.60 mg/kg, time point 0.083 h, n = 3, read-out: CTotal, plasma): 95 ± 18 ng/mL
concentration at 0.5 h ([3]; plasma, IV bolus 0.28 mg/kg + IV infusion 0.60 mg/kg, time point 0.50 h, n = 3, read-out: CTotal, plasma): 89 ± 20 ng/mL
concentration at 1 h ([3]; plasma, IV bolus 0.28 mg/kg + IV infusion 0.60 mg/kg, time point 1.00 h, n = 3, read-out: CTotal, plasma): 91 ± 9 ng/mL
concentration at 1.5 h ([3]; plasma, IV bolus 0.28 mg/kg + IV infusion 0.60 mg/kg, time point 1.50 h, n = 3, read-out: CTotal, plasma): 106 ± 13 ng/mL
concentration at 1.83 h ([3]; plasma, IV bolus 0.28 mg/kg + IV infusion 0.60 mg/kg, time point 1.83 h, n = 3, read-out: CTotal, plasma): 105 ± 8 ng/mL
concentration at 2 h ([3]; plasma, IV bolus 0.28 mg/kg + IV infusion 0.60 mg/kg, time point 2.00 h, n = 3, read-out: CTotal, plasma): 93 ± 11 ng/mL
SMILES: [2H]C([2H])([2H])c1c2c(nn1C1CCOCC1)OCCCn1nc(Cl)c3cnc(nc31)N2 [Example 13, 8-Chloro-3-(methyl-d3)-2-(tetrahydro-2H-pyran-4-yl)-2,4,12,13-tetrahydro-11H-5,7-(azenometheno)dipyrazolo[3,4-b:5′,1′-g][1]oxa[4,6,8]triazacycloundecine]
Adduct detected in GSH supplemented HLMs (GSH adduct screening): did not form GSH adduct; also recorded: None detected

From US11780851B2, “LRRK2 inhibitors” (H. Lundbeck A/S, priority 2021, dated 2023)
